System: Black Sigatoka on Bananas
Experiment: Assessment of disease in field plots: Black Sigatoka on banana plants, natural inoculation
Assay type: in vivo, Mycosphaerella fijiensis
Details: for Disease Severity (AUDPC): 61 Day After Application, Area Under Disease Progression Curve, banana field plots; for Total Number of Functional Leaves: bananas
Method: Aliquots of a 10% SC formulation of Compound I were diluted into water and mixed with Spraytex CT mineral oil (7 L/Ha) to achieve active ingredient application rates of 50, 100, 150, 200, 300 & 400 g a.i./Ha. These treatments were delivered to banana plants in field plots at an application volume of 23 L/Ha, using a Solo back-pack pump sprayer fitted with a Micronair AU8000 atomizer. A total of five applications were made at 10 day intervals. Experimental design was based on a randomized complete block, and 4 replications. Disease symptoms resulted from natural inoculation and epidemic development. Total experimental plot size was 96 m^2. Efficacy was determined by both percent visual infection and the number of functional leaves.

COc1ccnc(C(=O)N[C@H]2COC(=O)[C@H](Cc3ccccc3)[C@@H](OC(=O)C(C)C)[C@H](C)OC2=O)c1OCOC(=O)C(C)C [Compound I]
Disease Severity (AUDPC) (Compound I 50 ppm): 29
Disease Severity (AUDPC) (Compound I 100 ppm): 34
Disease Severity (AUDPC) (Compound I 150 ppm): 29
Disease Severity (AUDPC) (Compound I 200 ppm): 28
Disease Severity (AUDPC) (Compound I 300 ppm): 35
Total Number of Functional Leaves (Rate 50 g ai/ha, Week 10): 12.8
Total Number of Functional Leaves (Rate 50 g ai/ha, Week 13): 13.0
Total Number of Functional Leaves (Rate 50 g ai/ha, Week 15): 14.7
Total Number of Functional Leaves (Rate 100 g ai/ha, Week 10): 9.3
Total Number of Functional Leaves (Rate 100 g ai/ha, Week 13): 12.7
Total Number of Functional Leaves (Rate 100 g ai/ha, Week 15): 14.1
Total Number of Functional Leaves (Rate 200 g ai/ha, Week 10): 8.6
Total Number of Functional Leaves (Rate 200 g ai/ha, Week 13): 12.3
Total Number of Functional Leaves (Rate 200 g ai/ha, Week 15): 14.0
Total Number of Functional Leaves (Rate 400 g ai/ha, Week 10): 8.7
Total Number of Functional Leaves (Rate 400 g ai/ha, Week 13): 12.7
Total Number of Functional Leaves (Rate 400 g ai/ha, Week 15): 14.0
